Assay results published in article PMC4873967, “ISPD produces CDP-ribitol used by FKTN and FKRP to transfer ribitol phosphate onto α-dystroglycan” (Nature Communications, 2016).

How the values were obtained:
Format in all cases: biochemical
[1] = molecular target: T1, FKTN (fukutin) (Mus musculus, UniProt Q8R507); assay: transfer of radiolabel to alpha-dystroglycan (scintillation counting; SDS-PAGE phosphorimaging); conditions: labelled compound; acceptor rabbit alpha-dystroglycan fragments; 2 mM MnCl2, pH 6.5, 30 °C, 16 h
T1 construct: full ORF from mouse brown adipose tissue cDNA, C-terminal SFB tag (S-tag, two FLAG, SBP), HEK293 lysate, streptavidin beads
T1 sequence (Q8R507 1-461): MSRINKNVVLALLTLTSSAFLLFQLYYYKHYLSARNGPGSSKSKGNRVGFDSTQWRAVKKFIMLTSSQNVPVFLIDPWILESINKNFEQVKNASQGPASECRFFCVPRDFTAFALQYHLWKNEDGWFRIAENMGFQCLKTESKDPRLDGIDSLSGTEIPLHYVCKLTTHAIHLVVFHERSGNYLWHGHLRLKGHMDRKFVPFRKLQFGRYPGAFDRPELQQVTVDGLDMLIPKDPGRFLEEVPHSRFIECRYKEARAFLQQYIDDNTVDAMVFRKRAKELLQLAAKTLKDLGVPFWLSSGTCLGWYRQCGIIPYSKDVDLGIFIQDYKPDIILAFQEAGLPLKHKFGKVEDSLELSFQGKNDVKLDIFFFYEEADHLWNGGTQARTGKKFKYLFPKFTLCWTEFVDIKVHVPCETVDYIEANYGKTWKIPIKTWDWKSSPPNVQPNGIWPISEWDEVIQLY

[2] = molecular target: T2, FKRP (fukutin-related protein) (Mus musculus, UniProt Q8CG64); assay: as above; conditions: labelled compound; acceptor rabbit alpha-dystroglycan fragments; 2 mM MnCl2, pH 6.5, 30 °C, 16 h
T2 construct: full ORF from mouse thymus cDNA, C-terminal SFB tag (S-tag, two FLAG, SBP), HEK293 lysate, streptavidin beads
T2 sequence (Q8CG64 1-494): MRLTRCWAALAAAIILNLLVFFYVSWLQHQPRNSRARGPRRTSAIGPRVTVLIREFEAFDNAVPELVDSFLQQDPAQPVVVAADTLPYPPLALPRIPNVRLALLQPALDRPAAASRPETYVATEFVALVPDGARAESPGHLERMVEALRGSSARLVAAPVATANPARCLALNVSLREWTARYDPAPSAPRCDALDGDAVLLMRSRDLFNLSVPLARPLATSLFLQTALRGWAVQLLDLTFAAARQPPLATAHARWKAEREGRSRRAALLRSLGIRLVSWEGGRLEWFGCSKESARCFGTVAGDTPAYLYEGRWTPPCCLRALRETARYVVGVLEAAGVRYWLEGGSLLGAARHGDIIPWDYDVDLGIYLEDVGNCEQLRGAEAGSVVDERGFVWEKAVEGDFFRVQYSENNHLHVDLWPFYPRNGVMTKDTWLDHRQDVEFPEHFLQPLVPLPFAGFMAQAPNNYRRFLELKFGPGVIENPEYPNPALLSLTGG

[3] = molecular target: T3, ISPD (mouse Ispd) (Mus musculus, UniProt Q5RJG7); assay: HPLC (strong anion exchange) of CDP-ribitol formed; conditions: 1 mM CTP
T3 construct: gene Crppa
T3 sequence (Q5RJG7 1-447): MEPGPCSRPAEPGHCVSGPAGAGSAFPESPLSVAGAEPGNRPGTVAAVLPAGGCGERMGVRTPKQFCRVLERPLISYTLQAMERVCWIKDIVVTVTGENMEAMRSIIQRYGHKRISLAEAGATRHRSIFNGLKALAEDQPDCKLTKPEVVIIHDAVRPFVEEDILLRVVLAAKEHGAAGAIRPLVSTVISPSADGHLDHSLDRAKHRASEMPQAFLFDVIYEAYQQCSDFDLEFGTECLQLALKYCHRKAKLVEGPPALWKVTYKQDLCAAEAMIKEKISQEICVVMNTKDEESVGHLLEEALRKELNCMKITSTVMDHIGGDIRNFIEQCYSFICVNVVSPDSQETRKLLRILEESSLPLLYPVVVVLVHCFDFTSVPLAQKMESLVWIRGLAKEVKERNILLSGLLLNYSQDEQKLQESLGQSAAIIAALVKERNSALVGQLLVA

Nc1ccn([C@@H]2O[C@H](COP(=O)(O)OP(=O)(O)OC[C@@H](O)[C@@H](O)[C@@H](O)CO)[C@@H](O)[C@H]2O)c(=O)n1 [CDP-ribitol]
transfer of radiolabel to alpha-dystroglycan (scintillation counting); SDS-PAGE p [1]: both FKTN and FKRP were able to transfer ribitol phosphate from CDP-ribitol onto α-dystroglycan | transfer of radiolabel to alpha-dystroglycan (scintillation counting); SDS-PAGE p [2]: both FKTN and FKRP were able to transfer ribitol phosphate from CDP-ribitol onto α-dystroglycan

Nc1ccn([C@@H]2O[C@H](COP(=O)(O)OP(=O)(O)OP(=O)(O)O)[C@@H](O)[C@H]2O)c(=O)n1 [CTP]
HPLC (strong anion exchange) of CDP-ribitol formed ([3]; D-ribitol-5-P as co-substrate, 2 mM MgCl2, pH 7.8, 37 °C): Activity of ISPD on CTP and D-ribitol-5-P

O=P(O)(O)OC[C@@H](O)[C@@H](O)[C@@H](O)CO [D-ribitol-5-P]
HPLC (strong anion exchange) of CDP-ribitol formed ([3]; 2 mM MgCl2, 20 mM KCl, 2 mM DTT, pH 7.8, 37 °C): we clearly observed a CDP-ribitol pyrophosphorylase activity (Fig. 1b)
